According to ChEMBL document CHEMBL5046282, “Discovery of Brain-Penetrant Glucosylceramide Synthase Inhibitors with a Novel Pharmacophore” (J Med Chem, 2022):
Converted amounts (≈) assume the structure as drawn.

What was measured:
[1] = Kinetic solubility of the compound in JP2 fluid at pH 6.8 by precipitation method; assay type: physicochemical; conditions: read-out: Kinetic_solubility
[2] = Efflux ratio of apparent permeability from basolateral to apical side over apical to basolateral side in dog MDCK-MDR1 cells at 1 uM measured after 1 hr by LC-MS/MS analysis; assay type: ADME, cell-based, Canis lupus familiaris
[3] = target: T1, Ceramide glucosyltransferase (Mus musculus, UniProt O88693); test: Inhibition of mouse GCS using C8-ceramide and UDP-glucose as substrate incubated for 1 hr by RapidFire mass spectrometry
T1 sequence (O88693 whole entry): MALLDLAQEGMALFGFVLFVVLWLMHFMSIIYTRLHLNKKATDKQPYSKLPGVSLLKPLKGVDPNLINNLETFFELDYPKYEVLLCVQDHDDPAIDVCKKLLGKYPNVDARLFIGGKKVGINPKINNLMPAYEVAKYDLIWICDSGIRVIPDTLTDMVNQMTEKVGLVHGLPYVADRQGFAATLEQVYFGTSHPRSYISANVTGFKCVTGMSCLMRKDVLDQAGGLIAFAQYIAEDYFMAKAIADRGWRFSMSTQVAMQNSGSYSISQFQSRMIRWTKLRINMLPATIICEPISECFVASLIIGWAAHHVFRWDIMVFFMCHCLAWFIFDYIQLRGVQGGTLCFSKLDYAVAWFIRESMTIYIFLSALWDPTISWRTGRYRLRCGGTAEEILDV

[4] = Intrinsic clearance in human liver microsomes at 1 uM in presence of NADPH generating system assessed per mg protein by LC-MS/MS analysis; assay type: ADME, Microsome; conditions: read-out: CLH
CYP2C8 = target: T2, CYP2C8 (Homo sapiens, UniProt P10632); test: Inhibition of CYP2C8 in human liver microsomes using paclitaxel as substrate at 10 uM in presence of NADPH generating system incubated for 10 mins; assay type: ADME; conditions: probe paclitaxel
T2 sequence (P10632 whole entry): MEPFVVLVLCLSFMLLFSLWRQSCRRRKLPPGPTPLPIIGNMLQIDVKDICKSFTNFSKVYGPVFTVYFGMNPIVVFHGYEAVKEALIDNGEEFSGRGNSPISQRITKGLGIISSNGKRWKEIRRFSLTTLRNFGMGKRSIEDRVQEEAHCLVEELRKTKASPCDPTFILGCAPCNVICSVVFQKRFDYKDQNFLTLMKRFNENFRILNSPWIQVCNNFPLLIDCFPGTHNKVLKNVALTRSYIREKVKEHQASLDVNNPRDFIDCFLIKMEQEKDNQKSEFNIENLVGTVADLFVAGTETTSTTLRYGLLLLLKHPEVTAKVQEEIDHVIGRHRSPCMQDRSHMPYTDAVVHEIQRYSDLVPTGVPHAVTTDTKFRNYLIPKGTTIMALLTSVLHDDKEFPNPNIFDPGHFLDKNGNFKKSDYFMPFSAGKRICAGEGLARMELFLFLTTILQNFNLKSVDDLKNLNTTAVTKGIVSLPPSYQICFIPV

CYP2D6 = CYP2D6 (Homo sapiens, UniProt P10635); test: Inhibition of CYP2D6 in human liver microsomes using dextromethorphan as substrate at 10 uM in presence of NADPH generating system incubated for 10 mins; assay type: ADME; conditions: probe dextromethorphan
CYP3A4 = CYP3A4 (Homo sapiens, UniProt P08684); test: Inhibition of CYP3A4 in human liver microsomes using midazolam as substrate at 10 uM in presence of NADPH generating system incubated for 10 mins; assay type: ADME; conditions: probe midazolam
[5] = Fraction unbound in plasma of non-fasted ICR mouse at 30 mg/kg, po measured after 1 hr by LC-MS/MS analysis; assay type: ADME, organism-based
[6] = Fraction unbound in brain of non-fasted ICR mouse at 30 mg/kg, po measured after 1 hr by LC-MS/MS analysis; assay type: ADME, organism-based
[7] = Ratio of unbound drug concentration in brain to plasma of non-fasted ICR mouse at 30 mg/kg, po measured after 1 hr by LC-MS/MS analysis; assay type: ADME, organism-based; conditions: read-out: K(p,uu,brain)
[8] = Unbound drug concentration in brain of non-fasted ICR mouse at 30 mg/kg, po measured after 1 hr by LC-MS/MS analysis; assay type: ADME, organism-based; conditions: in vivo
hERG = hERG (Homo sapiens, UniProt Q12809); test: Inhibition of hERG expressed in CHO-K1 cells at 30 uM by automated whole cell patch clamp assay; assay type: toxicity, cell-based; conditions: CHO-K1 cells expressing hERG
Cav1.2 = Cav1.2 (Homo sapiens, UniProt Q13936); test: Inhibition of human Cav1.2 expressed in HEK293 cells at 30 uM by automated electrophysiology QPatch HT assay; assay type: toxicity, cell-based; conditions: HEK293 cells expressing Cav1.2
Mus musculus = test: In vivo inhibition of GCS activity in po dosed C57BL/6J mouse assessed as reduction in GlcCer level in cerebral cortex measured after 6 hrs; assay type: functional, organism-based; conditions: dose 30-300 mg/kg
[9] = Cardiotoxicity in human iPSC-derived cardiomyocytes assessed as induction of proarrhythmic activity at 10 uM by Fluo-4 dye based fluorescence analysis; assay type: toxicity; conditions: cardiac muscle cell
[10] = target: Ceramide glucosyltransferase (Homo sapiens, UniProt Q16739); test: Inhibition of GCS in GBA mutant human fibroblasts assessed as reduction in glucosylceramide level incubated for 4 days by RapdiFire-MS/MS analysis; assay type: cell-based; conditions: fibroblast
[11] = Oral bioavailability in non-fasted ICR mouse at 5 mg/kg by LC-MS/MS analysis; assay type: ADME, organism-based; conditions: in vivo
[12] = target: T3, Lysosomal acid glucosylceramidase (Homo sapiens, UniProt P04062); test: Inhibition of human recombinant GCase using 4-methylumbelliferyl beta-D-glucopyranoside as substrate incubated for 20 mins by fluorescence-based analysis
T3 sequence (P04062 whole entry): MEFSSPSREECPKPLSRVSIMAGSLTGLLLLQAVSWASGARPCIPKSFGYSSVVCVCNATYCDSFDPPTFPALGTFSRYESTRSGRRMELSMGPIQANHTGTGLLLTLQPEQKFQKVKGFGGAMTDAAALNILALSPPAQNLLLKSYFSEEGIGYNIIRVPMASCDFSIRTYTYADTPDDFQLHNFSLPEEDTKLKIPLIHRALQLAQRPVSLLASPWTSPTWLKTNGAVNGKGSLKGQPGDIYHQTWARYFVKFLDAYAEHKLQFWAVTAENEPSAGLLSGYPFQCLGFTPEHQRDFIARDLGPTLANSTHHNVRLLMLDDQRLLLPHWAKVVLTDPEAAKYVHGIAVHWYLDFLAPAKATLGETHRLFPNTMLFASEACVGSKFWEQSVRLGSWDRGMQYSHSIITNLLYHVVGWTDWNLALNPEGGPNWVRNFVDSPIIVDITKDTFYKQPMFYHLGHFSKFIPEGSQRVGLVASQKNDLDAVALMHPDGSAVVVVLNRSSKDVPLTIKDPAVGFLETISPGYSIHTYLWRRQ

[13] = Toxicity in Sprague-Dawley rat assessed as change in body weight at 30 to 300 mg/kg, po administered once daily for 3 days; assay type: organism-based; conditions: in vivo, 72 h, dose 30-300 mg/kg, time 3 day

Chain of CYP3A4 (P08684 whole entry): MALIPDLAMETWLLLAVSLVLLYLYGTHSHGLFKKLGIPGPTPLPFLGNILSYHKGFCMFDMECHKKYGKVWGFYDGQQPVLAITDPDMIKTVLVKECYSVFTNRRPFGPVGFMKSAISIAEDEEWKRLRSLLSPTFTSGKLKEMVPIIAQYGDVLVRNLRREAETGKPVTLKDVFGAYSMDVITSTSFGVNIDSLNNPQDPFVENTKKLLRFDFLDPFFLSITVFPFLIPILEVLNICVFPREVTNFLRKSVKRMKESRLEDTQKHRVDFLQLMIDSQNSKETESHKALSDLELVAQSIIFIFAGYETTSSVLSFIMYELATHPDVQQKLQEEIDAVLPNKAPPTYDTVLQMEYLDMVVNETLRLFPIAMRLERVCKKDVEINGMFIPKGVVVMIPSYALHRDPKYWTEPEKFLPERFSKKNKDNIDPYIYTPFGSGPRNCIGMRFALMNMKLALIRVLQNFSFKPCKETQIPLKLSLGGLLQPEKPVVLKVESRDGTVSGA
Chain of Cav1.2 (Q13936 whole entry): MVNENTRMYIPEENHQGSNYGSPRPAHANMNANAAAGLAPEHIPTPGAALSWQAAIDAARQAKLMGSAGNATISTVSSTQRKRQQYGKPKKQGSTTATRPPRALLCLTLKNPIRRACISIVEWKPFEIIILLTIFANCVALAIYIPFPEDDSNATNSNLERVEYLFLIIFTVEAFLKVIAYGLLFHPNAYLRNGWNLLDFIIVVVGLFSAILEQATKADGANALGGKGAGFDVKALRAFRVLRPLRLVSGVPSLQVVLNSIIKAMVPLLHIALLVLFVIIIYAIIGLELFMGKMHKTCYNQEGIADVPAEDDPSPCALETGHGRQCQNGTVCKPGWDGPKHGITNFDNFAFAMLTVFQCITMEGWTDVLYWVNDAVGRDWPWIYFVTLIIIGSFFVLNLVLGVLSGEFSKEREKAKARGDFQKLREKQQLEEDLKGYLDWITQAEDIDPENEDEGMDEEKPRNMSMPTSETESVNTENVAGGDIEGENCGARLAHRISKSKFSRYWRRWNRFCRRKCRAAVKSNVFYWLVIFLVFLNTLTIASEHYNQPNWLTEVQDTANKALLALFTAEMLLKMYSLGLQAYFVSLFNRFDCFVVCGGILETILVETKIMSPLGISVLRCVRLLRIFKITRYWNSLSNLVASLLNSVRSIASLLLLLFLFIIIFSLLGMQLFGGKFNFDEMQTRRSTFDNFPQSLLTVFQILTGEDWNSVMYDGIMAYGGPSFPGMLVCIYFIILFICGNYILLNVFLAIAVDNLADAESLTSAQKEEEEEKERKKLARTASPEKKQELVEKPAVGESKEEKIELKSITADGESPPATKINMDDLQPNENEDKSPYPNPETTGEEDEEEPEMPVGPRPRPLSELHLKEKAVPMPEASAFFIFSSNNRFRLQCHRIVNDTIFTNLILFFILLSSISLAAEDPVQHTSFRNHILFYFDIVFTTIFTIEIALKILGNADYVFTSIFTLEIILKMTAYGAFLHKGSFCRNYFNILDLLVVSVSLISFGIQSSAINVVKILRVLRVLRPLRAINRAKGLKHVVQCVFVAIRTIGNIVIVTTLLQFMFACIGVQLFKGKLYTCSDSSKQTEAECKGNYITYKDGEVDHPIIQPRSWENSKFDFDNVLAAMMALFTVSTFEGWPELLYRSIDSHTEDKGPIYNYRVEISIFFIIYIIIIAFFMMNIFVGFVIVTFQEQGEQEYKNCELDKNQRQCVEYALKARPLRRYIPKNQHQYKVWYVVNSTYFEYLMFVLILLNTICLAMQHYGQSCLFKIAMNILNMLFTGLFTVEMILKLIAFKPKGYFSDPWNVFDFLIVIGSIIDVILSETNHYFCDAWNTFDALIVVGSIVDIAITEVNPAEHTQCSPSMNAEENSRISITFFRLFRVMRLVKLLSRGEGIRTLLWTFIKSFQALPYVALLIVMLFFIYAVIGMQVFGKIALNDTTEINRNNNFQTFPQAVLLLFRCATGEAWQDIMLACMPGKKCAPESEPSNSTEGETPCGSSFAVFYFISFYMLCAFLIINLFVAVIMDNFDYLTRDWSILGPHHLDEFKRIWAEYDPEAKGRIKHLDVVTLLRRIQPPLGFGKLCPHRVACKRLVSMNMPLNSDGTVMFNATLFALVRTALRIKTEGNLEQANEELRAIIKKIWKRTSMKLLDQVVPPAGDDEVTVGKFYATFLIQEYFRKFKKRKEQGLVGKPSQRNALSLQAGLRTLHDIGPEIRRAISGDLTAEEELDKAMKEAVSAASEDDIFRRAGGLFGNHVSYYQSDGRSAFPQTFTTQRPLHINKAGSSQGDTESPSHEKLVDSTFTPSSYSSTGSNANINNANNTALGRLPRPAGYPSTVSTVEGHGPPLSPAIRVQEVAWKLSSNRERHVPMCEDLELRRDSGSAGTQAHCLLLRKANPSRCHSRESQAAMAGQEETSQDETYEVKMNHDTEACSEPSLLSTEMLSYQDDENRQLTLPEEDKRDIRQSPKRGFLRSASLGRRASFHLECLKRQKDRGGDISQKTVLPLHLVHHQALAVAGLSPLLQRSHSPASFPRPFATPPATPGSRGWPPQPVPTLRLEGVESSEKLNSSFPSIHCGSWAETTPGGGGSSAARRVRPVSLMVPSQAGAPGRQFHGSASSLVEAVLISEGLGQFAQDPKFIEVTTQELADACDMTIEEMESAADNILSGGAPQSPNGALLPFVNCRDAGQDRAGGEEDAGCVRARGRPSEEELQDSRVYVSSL
Chain of hERG (Q12809 whole entry): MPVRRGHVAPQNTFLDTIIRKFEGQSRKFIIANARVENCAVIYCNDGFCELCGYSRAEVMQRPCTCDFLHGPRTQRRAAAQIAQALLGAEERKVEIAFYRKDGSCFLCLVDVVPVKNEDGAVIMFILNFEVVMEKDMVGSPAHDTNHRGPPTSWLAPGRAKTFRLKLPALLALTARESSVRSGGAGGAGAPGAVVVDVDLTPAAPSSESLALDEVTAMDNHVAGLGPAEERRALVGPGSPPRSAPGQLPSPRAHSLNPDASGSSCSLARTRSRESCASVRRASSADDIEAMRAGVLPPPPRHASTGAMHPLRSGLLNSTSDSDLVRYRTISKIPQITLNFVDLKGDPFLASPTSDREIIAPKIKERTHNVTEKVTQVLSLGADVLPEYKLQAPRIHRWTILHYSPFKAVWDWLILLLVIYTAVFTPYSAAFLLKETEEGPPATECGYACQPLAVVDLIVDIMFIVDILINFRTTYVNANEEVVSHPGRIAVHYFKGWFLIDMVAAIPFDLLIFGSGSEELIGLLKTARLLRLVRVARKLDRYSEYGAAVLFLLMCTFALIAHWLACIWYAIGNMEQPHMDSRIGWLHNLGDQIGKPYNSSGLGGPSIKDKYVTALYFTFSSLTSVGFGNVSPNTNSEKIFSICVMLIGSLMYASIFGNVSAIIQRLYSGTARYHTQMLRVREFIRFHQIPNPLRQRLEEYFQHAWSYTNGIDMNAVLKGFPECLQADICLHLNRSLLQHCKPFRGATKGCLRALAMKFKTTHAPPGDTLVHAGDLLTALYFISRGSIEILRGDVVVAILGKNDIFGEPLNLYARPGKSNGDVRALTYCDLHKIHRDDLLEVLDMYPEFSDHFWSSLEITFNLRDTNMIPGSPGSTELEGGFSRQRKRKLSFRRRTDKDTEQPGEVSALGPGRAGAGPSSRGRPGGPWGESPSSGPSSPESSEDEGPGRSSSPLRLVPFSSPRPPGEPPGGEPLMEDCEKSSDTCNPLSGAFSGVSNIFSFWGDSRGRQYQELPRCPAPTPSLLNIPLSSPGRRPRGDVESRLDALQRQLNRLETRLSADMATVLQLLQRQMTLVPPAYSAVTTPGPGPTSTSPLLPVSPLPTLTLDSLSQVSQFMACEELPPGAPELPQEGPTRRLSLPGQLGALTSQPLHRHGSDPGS
Chain of CYP2D6 (P10635 whole entry): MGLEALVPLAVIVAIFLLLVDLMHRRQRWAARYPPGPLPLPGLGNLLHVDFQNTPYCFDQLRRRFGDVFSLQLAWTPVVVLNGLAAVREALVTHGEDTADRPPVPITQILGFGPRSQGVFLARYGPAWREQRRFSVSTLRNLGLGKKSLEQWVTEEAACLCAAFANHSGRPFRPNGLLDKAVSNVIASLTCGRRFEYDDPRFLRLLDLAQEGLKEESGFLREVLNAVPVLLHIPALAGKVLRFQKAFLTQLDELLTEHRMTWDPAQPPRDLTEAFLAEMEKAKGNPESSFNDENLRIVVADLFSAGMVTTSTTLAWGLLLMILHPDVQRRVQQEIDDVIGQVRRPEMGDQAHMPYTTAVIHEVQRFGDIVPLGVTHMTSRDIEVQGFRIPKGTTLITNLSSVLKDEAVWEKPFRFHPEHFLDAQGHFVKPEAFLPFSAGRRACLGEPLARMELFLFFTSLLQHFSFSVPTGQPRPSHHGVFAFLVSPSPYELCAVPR
Chain of Ceramide glucosyltransferase (Homo sapiens, UniProt Q16739) (Q16739 whole entry, looked up, change not shown): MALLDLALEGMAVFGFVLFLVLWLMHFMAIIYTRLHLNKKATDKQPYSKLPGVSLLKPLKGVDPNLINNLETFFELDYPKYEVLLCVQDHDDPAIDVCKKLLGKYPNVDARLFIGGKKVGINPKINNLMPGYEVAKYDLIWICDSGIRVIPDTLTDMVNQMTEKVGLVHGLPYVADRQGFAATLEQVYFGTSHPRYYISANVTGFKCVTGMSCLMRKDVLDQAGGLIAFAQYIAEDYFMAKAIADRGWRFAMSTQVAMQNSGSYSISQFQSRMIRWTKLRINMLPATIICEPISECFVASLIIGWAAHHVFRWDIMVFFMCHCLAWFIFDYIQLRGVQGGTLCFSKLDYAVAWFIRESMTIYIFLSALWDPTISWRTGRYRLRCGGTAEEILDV

CC(C)(O)c1ccc(NC(=O)c2ccnn(-c3ccccc3OCC(F)(F)F)c2=O)cc1
solubility kinetic [1]: 45 µg/mL (≈ 101 µM) | efflux ratio at 1 h, 1 µM [2]: 8.8 | IC50 [3]: 190 nM | microsomal CLint at 1 µM [4]: 32 µL/min/mg | inhibition at 10 min, 10 µM (CYP2C8): 34.2% | inhibition at 10 min, 10 µM (CYP2D6): 15.6% | inhibition at 10 min, 10 µM (CYP3A4): -4.8% | fraction unbound at 1 h [5]: 0.23 | fraction unbound at 1 h [6]: 0.039 | Kp uu at 1 h [7]: 0.26 | Drug uptake(free) [8]: 0.21 µM | inhibition at 30 µM (hERG): 8% | inhibition at 30 µM (Cav1.2): 7.3% | inhibition (Mus musculus): Dose-Dependent Effect | Activity [9]: Non-Toxic | EC50 [10]: 4.4 nM | bioavailability [11]: 31% | EC50 [12]: > 300000 nM | Activity [13]: Non-Toxic
